# Several values for one entry are separate records, joined by “and”; a condition that tells them apart may be missing. Equal entries are not always repeated.
# How the values were obtained:
# [1] = test system: patients with mild cognitive impairment (MCI) due to Alzheimer's disease (AD) or with mild AD; experiment: Hopkins Verbal Learning Test-Revised (HVLT-R), 6-week study (Example 2); type: in vivo, human; details: for HVLT-R Delayed Recall change from averaged baseline, Maximum / HVLT-R Delayed Recall change from averaged baseline, Median / HVLT-R Delayed Recall change from averaged baseline, Minimum / HVLT-R RDI change from averaged baseline, Maximum / HVLT-R RDI change from averaged baseline, Median / HVLT-R RDI change from averaged baseline, Minimum / HVLT-R Retention change from averaged baseline, Maximum / HVLT-R Retention change from averaged baseline, Median / HVLT-R Retention change from averaged baseline, Minimum / HVLT-R Total Recall change from averaged baseline, Maximum / HVLT-R Total Recall change from averaged baseline, Median / HVLT-R Total Recall change from averaged baseline, Minimum: n=8; for HVLT-R Delayed Recall change from averaged baseline, Arithmetic Mean / HVLT-R Retention change from averaged baseline, Arithmetic Mean / HVLT-R Total Recall change from averaged baseline, Arithmetic Mean: overall pharmacodynamic population n=8
# Procedure: The Hopkins Verbal Learning Test-Revised (HVLT-R) was utilized to assess episodic memory. In this test, 12 specific words from a list were provided verbally, and the subject was asked to recall as many words as possible. Two scores are calculated: (i) Total (Immediate) Recall Score (range: 0-36): combined score of three consecutive trials immediately following provision of words and (ii) Delayed Recall Score (range: 0-12): Number of words recalled when subject was asked 20 to 25 minutes after initial trials to recall as many of the words originally provided. A strength of the HVLT-R is that six different validated version exist that each incorporate a different set of words. Due to the use of these different versions during the course of a clinical study, there is essentially no practice effect with repeated administration (Benedict, R. H. B. et al, “Hopkins Verbal Learning Test-Revised: Normative Data and Analysis of Inter-Form and Test-Retest Reliability” The Clinical Neuropsychologist, 12(1): 43-55 (1998)).
# amyloid plaque load = experiment: Quantitative dynamic [11C]PiB PET amyloid scanning (RPM2-BPND), 12-week study; type: in vivo, human; details: for Number of Responders/Total Number in Population, PET metric Cingulate Posterior / Number of Responders/Total Number in Population, PET metric Frontal / Number of Responders/Total Number in Population, PET metric Global / Number of Responders/Total Number in Population, PET metric Med Temp Lobe / Number of Responders/Total Number in Population, PET metric Parietal / Number of Responders/Total Number in Population, PET metric Temporal: responder = reduction of ≥7% in RPM2-BPND
# Procedure: Dosing started on Day 1 following completion of all baseline procedures. During the treatment period, subjects returned to the clinic on Days 14, 28, 56, and 84. […] Dynamic PET scanning with fill quantitative analysis was performed at baseline and at the end of treatment.
# Target engagement was assessed through the use of an AD-related biomarker. The primary endpoint was based on assessment of amyloid plaque burden using quantitative dynamic PET amyloid scanning (Tolboom, N. et al. “Test-retest variability of quantitative [^11C]PIB studies in Alzheimer's disease.” Eur. J. Nucl. Med. Mol. Imaging 36(10): 1629-1638 (2009)). The method of van Berckel et al (van Berckel B N, R. Ossenkoppele, et al. “Longitudinal amyloid imaging using ^11CPiB: Methodologic considerations.” J. Nucl. Med. 5=1; 1570-1576 (2013)) was followed, in which dynamic emission scanning consists of 23 frames with progressive increases in frame duration (1·15, 3·5, 3·10, 2·30, 3·60, 2·150, 2·300, and 7·600 s) for a total scan duration of 90 min; and subsequently full quantitative data analysis of the images was performed by reference parametric mapping (RPM2) using cerebellum as reference tissue. This methodology allowed for a more reliable (i.e. less variable) assessment of brain amyloid plaque load than standard amyloid PET imaging. In addition this method of measuring amyloid burden has high scan-to-scan stability (˜2-3% test-test variability) within subjects. No placebo group was enrolled. Instead, reductions in brain amyloid plaque load of greater than 7%, which is definitively outside the range of test-test variability, were considered to be a drug effect in this study.
# [2] = Example 2 study (N = 8), HLVT-R
structure (smiles),measurement,setting,value
O=c1ncn2nc(Sc3ccc(F)cc3F)ccc2c1-c1c(Cl)cccc1Cl [VX-745],"HVLT-R Delayed Recall change from averaged baseline, Maximum",[1]; Day 14,4
same,"HVLT-R Delayed Recall change from averaged baseline, Median",[1]; Day 14,1.0
same,"HVLT-R Delayed Recall change from averaged baseline, Minimum",[1]; Day 14,−3
same,"HVLT-R RDI change from averaged baseline, Maximum",[1]; Day 14,5
same,"HVLT-R RDI change from averaged baseline, Median",[1]; Day 14,−0.3
same,"HVLT-R RDI change from averaged baseline, Minimum",[1]; Day 14,−3
same,"HVLT-R Retention change from averaged baseline, Maximum",[1]; Day 14,35%
same,"HVLT-R Retention change from averaged baseline, Median",[1]; Day 14,6.3%
same,"HVLT-R Retention change from averaged baseline, Minimum",[1]; Day 14,−37%
same,"HVLT-R Total Recall change from averaged baseline, Maximum",[1]; Day 14,6
same,"HVLT-R Total Recall change from averaged baseline, Median",[1]; Day 14,0.0
same,"HVLT-R Total Recall change from averaged baseline, Minimum",[1]; Day 14,−2
same,"HVLT-R Delayed Recall change from averaged baseline, Arithmetic Mean",[1]; Day 14,0.8
same,"HVLT-R Retention change from averaged baseline, Arithmetic Mean",[1]; Day 14,3.8%
same,"HVLT-R Total Recall change from averaged baseline, Arithmetic Mean",[1]; Day 14,0.6
same,"HVLT-R Delayed Recall change from averaged baseline, Maximum",[1]; Day 40,7
same,"HVLT-R Delayed Recall change from averaged baseline, Median",[1]; Day 40,1.0
same,"HVLT-R Delayed Recall change from averaged baseline, Minimum",[1]; Day 40,0
same,"HVLT-R RDI change from averaged baseline, Maximum",[1]; Day 40,6
same,"HVLT-R RDI change from averaged baseline, Median",[1]; Day 40,1.3
same,"HVLT-R RDI change from averaged baseline, Minimum",[1]; Day 40,−11
same,"HVLT-R Retention change from averaged baseline, Maximum",[1]; Day 40,71%
same,"HVLT-R Retention change from averaged baseline, Median",[1]; Day 40,6.5%
same,"HVLT-R Retention change from averaged baseline, Minimum",[1]; Day 40,−14%
same,"HVLT-R Total Recall change from averaged baseline, Maximum",[1]; Day 40,10
same,"HVLT-R Total Recall change from averaged baseline, Median",[1]; Day 40,4.5
same,"HVLT-R Total Recall change from averaged baseline, Minimum",[1]; Day 40,−3
same,"HVLT-R Delayed Recall change from averaged baseline, Arithmetic Mean",[1]; Day 40,2.1
same,"HVLT-R Retention change from averaged baseline, Arithmetic Mean",[1]; Day 40,15.3%
same,"HVLT-R Total Recall change from averaged baseline, Arithmetic Mean",[1]; Day 40,3.5
same,"Calculated within-subject treatment effect size (Cohen's d), Delayed Recall",[1]; [2],.86
same,"Calculated within-subject treatment effect size (Cohen's d), Immediate Recall",[1]; [2],.69
same,Median increase in HVLT-R Total Recall score,[1]; during 6-week treatment,4.5 (range: −2.5 to +9.5)
same,HVLT-R Mean Total Recall score,"[1]; week 6, Baseline 19.1 (±1.5), p=0.015",22.6 (±2.1)
same,HVLT-R Delayed Recall score,"[1]; week 6, baseline 5.4 (±0.6), P=0.028",7.5 (±1.1)
same,subjects between 3 and 7% (% change RPM2_BPND),amyloid plaque load; 40 mg,2
same,subjects who reached the 7% responder criterion (% change RPM2_BPND),amyloid plaque load; 40 mg,3
same,"Number of Responders/Total Number in Population, PET metric Cingulate Posterior",amyloid plaque load; 40 mg twice daily 12 weeks,2/8
same,"Number of Responders/Total Number in Population, PET metric Frontal",amyloid plaque load; 40 mg twice daily 12 weeks,3/8
same,"Number of Responders/Total Number in Population, PET metric Global",amyloid plaque load; 40 mg twice daily 12 weeks,3/8
same,"Number of Responders/Total Number in Population, PET metric Med Temp Lobe",amyloid plaque load; 40 mg twice daily 12 weeks,4/8
same,"Number of Responders/Total Number in Population, PET metric Parietal",amyloid plaque load; 40 mg twice daily 12 weeks,3/8
same,"Number of Responders/Total Number in Population, PET metric Temporal",amyloid plaque load; 40 mg twice daily 12 weeks,2/8
same,"Number of Responders/Total Number in Population, PET metric Cingulate Posterior",amyloid plaque load; 125 mg twice daily 12 weeks,0/7
same,"Number of Responders/Total Number in Population, PET metric Frontal",amyloid plaque load; 125 mg twice daily 12 weeks,1/7
same,"Number of Responders/Total Number in Population, PET metric Global",amyloid plaque load; 125 mg twice daily 12 weeks,1/7
same,"Number of Responders/Total Number in Population, PET metric Med Temp Lobe",amyloid plaque load; 125 mg twice daily 12 weeks,2/7
same,"Number of Responders/Total Number in Population, PET metric Parietal",amyloid plaque load; 125 mg twice daily 12 weeks,0/7
same,"Number of Responders/Total Number in Population, PET metric Temporal",amyloid plaque load; 125 mg twice daily 12 weeks,1/7
same,"Percentage reduction in global cortical RPM2-BPND, individual responders","amyloid plaque load; 3 responders in the 40 mg dose group, 12 weeks",−11.6% and −11.9% and −40.5%
same,"Number of Responders/Total Number in Population, PET metric Cingulate Posterior","amyloid plaque load; All, 12 weeks",2/15
same,"Number of Responders/Total Number in Population, PET metric Frontal","amyloid plaque load; All, 12 weeks",4/15
same,"Number of Responders/Total Number in Population, PET metric Global","amyloid plaque load; All, 12 weeks",4/15
same,"Number of Responders/Total Number in Population, PET metric Med Temp Lobe","amyloid plaque load; All, 12 weeks",6/15
same,"Number of Responders/Total Number in Population, PET metric Parietal","amyloid plaque load; All, 12 weeks",3/15
same,"Number of Responders/Total Number in Population, PET metric Temporal","amyloid plaque load; All, 12 weeks",3/15
same,"Percentage reduction in global cortical RPM2-BPND, individual responder","amyloid plaque load; one responder in the 125 mg dose group, 12 weeks",−7.7%

# — US10420770B2, “Compositions and methods for treating dementia” (EIP Pharma, LLC, priority 2016, dated 2019)
